Experiments:
[1] = tested on: vascular smooth muscle cells; assay: Quantification of calcium in vascular smooth muscle cells; assay type: cell-based, cattle; conditions: inorganic phosphate-induced, 100 and 200 μM, corrected by protein amount, p<0.01 vs Vehicle, FIG. 2
Description: The surrounding tissues were removed from the thoracoabdominal aorta isolated from male cattle, and endothelial cells that line blood vessels were removed. The cleaned blood vessels were divided into small fragments, which were then aligned on a culture dish containing Dulbecco's modified Eagle's medium (DMEM, Low Glucose, Thermo Fisher Scientific, USA) supplemented with 20% fetal bovine serum (FBS, Hyclone, Australia). Thereafter, culturing was performed in a cell incubator at 37° C. and 5% CO2 for 3-4 weeks. The vascular smooth muscle cells stretching out around the vascular tissues were subjected to primary culture with media changed every two days. […]
After the induction of calcification by the method in Preparation Example 2 above, the media were removed from the culture dishes, followed by washing with PBS. Then, the cells were decalcified by treatment with 0.6 N HCl at 4° C. for 24 hours, The supernatant was recovered for the use in the quantification of calcium, and proteins were extracted from the cells by using 0.1 N NaOH/0.1% SDS, and quantified by using the BCA method. […]
(ODSAMPLE and ODBLANK represent the OD612nm values of calcium sample and blank (water), respectively; and the slope represents the inclination value on the measured absorbance graph)

[2] = tested on: vascular smooth muscle cells; assay: Investigation of calcification of vascular smooth muscle cells (silver nitrate staining, optical microscope); assay type: cell-based, cattle; conditions: inorganic phosphate (Pi)-induced, 100 and 200 μM, cultured 10 days, FIG. 1
Description: The surrounding tissues were removed from the thoracoabdominal aorta isolated from male cattle, and endothelial cells that line blood vessels were removed. The cleaned blood vessels were divided into small fragments, which were then aligned on a culture dish containing Dulbecco's modified Eagle's medium (DMEM, Low Glucose, Thermo Fisher Scientific, USA) supplemented with 20% fetal bovine serum (FBS, Hyclone, Australia). Thereafter, culturing was performed in a cell incubator at 37° C. and 5% CO2 for 3-4 weeks. The vascular smooth muscle cells stretching out around the vascular tissues were subjected to primary culture with media changed every two days.
The vascular smooth muscle cells cultured in Preparation Example 1 above were stabilized by subculture in DMEM (high glucose) supplemented with penicillin/streptomycin antibiotics and 10% FBS. […]
After the induction of calcification by the method in Preparation Example 2 above, the media were removed from the culture dishes, followed by washing with phosphate buffer saline (PBS) three times. […] Thereafter, the cells were washed with primary distilled water two or three times, and then were determined for a degree of calcification through an optical microscope (BX53 microscope, Olympus, Japan).

[3] = tested on: C57BL/6J mice; assay: In vivo vitamin D3-induced vascular calcification, Von Kossa staining of aorta; conditions: FIG. 3
Source text: (§1) C57BL/6J mice aged 8-9 weeks were grouped into 5 groups of 7 mice each, and four groups (one group being used as a control) underwent the induction of vascular calcification by subcutaneous administration of a high dose (9.0×10^5 IU) of vitamin D3 (Vit. D3) once a day for a total of 3 days.
First, on the 10th day after the administration of vitamin D3, the mice were sacrificed and the abdomen was opened, and then the aorta was separated by cleanly removing surrounding tissues of the aorta, and fixed with 4% paraformaldehyde (PFA) for 24 hours. The fixed aorta was washed, immersed in a 5% silver nitrate solution, and incubated under UV light for 30 minutes.

[4] = tested on: C57BL/6J mice; assay: In vivo vitamin D3-induced vascular calcification, calcium quantification in aorta; conditions: FIG. 4
Source text: as §1
Additionally, on the 10th day after the administration of vitamin D3, the mice were sacrificed and the abdomen was opened, and then the aorta was separated by cleanly removing surrounding tissues and frozen in liquid nitrogen. The frozen tissues were thawed, weighed after the removal of moisture, and then subjected to decalcification with a 0.6 N HCl solution. The colorimetric Ca quantification kit (Bioassay DICA-500) was used to quantify calcium in the 0.6 N HCl solution used in the decalcification, and the calcium quantification was corrected by using the tissue weight.

| SMILES | calcium amount increased by inorganic phosphate [1] | calcification (black dots) [2] | colored parts of aorta (Von Kossa staining) ([3]; 10 mg/kg and 30 mg/kg oral once a day for 13 days) | degree of recovery compared with the DCA administration group (positive control) ([3]; 30 mg/kg oral) | amount of calcium in the aorta ([4]; 10 mg/kg and 30 mg/kg oral once a day for 13 days, corrected by tissue weight) | degrees of decrease of calcium compared with the DCA group (positive control) ([4]; 10 mg/kg and 30 mg/kg oral) |
| --- | --- | --- | --- | --- | --- | --- |
| CC(=C(CCO)SSCC1CCCO1)N(C=O)Cc1cnc(C)nc1N (stereo in doubt) [fursultiamine, thiamine tetrahydrofurfuryl disulfide] | decreased | inhibited | reduced (recovered) dose-dependently | excellent | decreased dose-dependently | excellent |
| C=CCSS/C(CCO)=C(/C)N(C=O)Cc1cnc(C)nc1N [allithiamine, thiamine allyl disulfide] | decreased | inhibited | – | – | – | – |
